In the supplement of paper PMC10307832:

Legend:
Test in all cases: relative viability (nuclei count vs DMSO), 5 days (fraction); higher = more cells survive
[1] = tested on: NCI-H1651
In short: (§1)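 Lung cancer cell lines, seeded in 1536-well plates, were treated the following day by pin tool with a single drug or with five library-drug doses (not always all listed) in √10 steps on top of a fixed anchor-drug dose. Cells were fixed and nuclei stained in one step after 5 days, and nuclei were counted. Relative viability is the nuclei count for treated wells divided by that for vehicle wells, reported as medians of duplicate plates.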

[2] = tested on: HCC-366
In short: as §1

[3] = tested on: NCI-H460
In short: as §1

[4] = tested on: LC-2-ad
In short: as §1

[5] = tested on: UMC-11
In short: as §1

[6] = tested on: RERF-LC-KJ
In short: as §1

[7] = tested on: LU99A
In short: as §1

[8] = tested on: NCI-H2087
In short: as §1

[9] = tested on: NCI-H2170
In short: as §1

[10] = tested on: NCI-H1734
In short: as §1

[11] = tested on: CAL-12T
In short: as §1

[12] = tested on: NCI-H1755
In short: as §1

[13] = tested on: LOU-NH91
In short: as §1

[14] = tested on: NCI-H1944
In short: as §1

[15] = tested on: EPLC-272H
In short: as §1

[16] = tested on: NCI-H1793
In short: as §1

[17] = tested on: HCC-78
In short: as §1

[18] = tested on: ChaGo-K-1
In short: as §1

[19] = tested on: PC-3 [JPC-3]
In short: as §1

[20] = tested on: NCI-H2228
In short: as §1

[21] = tested on: NCI-H2405
In short: as §1

[22] = tested on: NCI-H1395
In short: as §1

[23] = tested on: NCI-H3122
In short: as §1

## CC(C)Oc1cc(Nc2nc(N[C@@H](C)c3ccc(F)cn3)ncc2Cl)n[nH]1 [AZ23] + Nc1nc2[nH]cc(CCc3ccc(C(=O)N[C@@H](CCC(=O)O)C(=O)O)cc3)c2c(=O)[nH]1 [Pemetrexed] (partner 0.2 µM)
[1]; first compound 0.01 µM
  relative viability: 0.349
[1]; first compound 0.03162 µM
  relative viability: 0.597
[1]; first compound 0.3162 µM
  relative viability: 0.615
[2]; first compound 0.01 µM
  relative viability: 0.0994
[2]; first compound 0.03162 µM
  relative viability: 0.186
[2]; first compound 0.3162 µM
  relative viability: 0.171
[3]; first compound 0.01 µM
  relative viability: 0.0522
[3]; first compound 0.03162 µM
  relative viability: 0.0661
[3]; first compound 0.3162 µM
  relative viability: 0.0611
[4]; first compound 0.01 µM
  relative viability: 0.275
[4]; first compound 0.03162 µM
  relative viability: 0.279
[4]; first compound 0.3162 µM
  relative viability: 0.297
[5]; first compound 0.01 µM
  relative viability: 0.802
[5]; first compound 0.03162 µM
  relative viability: 0.814
[5]; first compound 0.3162 µM
  relative viability: 0.791
[6]; first compound 0.01 µM
  relative viability: 0.493
[6]; first compound 0.03162 µM
  relative viability: 0.463
[6]; first compound 0.3162 µM
  relative viability: 0.495
[7]; first compound 0.01 µM
  relative viability: 0.146
[7]; first compound 0.03162 µM
  relative viability: 0.199
[7]; first compound 0.3162 µM
  relative viability: 0.209
[8]; first compound 0.01 µM
  relative viability: 0.727
[8]; first compound 0.03162 µM
  relative viability: 0.691
[8]; first compound 0.3162 µM
  relative viability: 0.766
[9]; first compound 0.01 µM
  relative viability: 0.261
[9]; first compound 0.03162 µM
  relative viability: 0.265
[9]; first compound 0.3162 µM
  relative viability: 0.256
[10]; first compound 0.01 µM
  relative viability: 0.358
[10]; first compound 0.03162 µM
  relative viability: 0.454
[10]; first compound 0.3162 µM
  relative viability: 0.41
[11]; first compound 0.03162 µM
  relative viability: 1.24
[11]; first compound 0.3162 µM
  relative viability: 1.23
[12]; first compound 0.01 µM
  relative viability: 0.401
[12]; first compound 0.03162 µM
  relative viability: 0.459
[12]; first compound 0.3162 µM
  relative viability: 0.468
[13]; first compound 0.01 µM
  relative viability: 0.505
[13]; first compound 0.03162 µM
  relative viability: 0.386
[13]; first compound 0.3162 µM
  relative viability: 0.394
[14]; first compound 0.01 µM
  relative viability: 0.314
[14]; first compound 0.03162 µM
  relative viability: 0.824
[14]; first compound 0.3162 µM
  relative viability: 0.665
[15]; first compound 0.03162 µM
  relative viability: 0.322
[15]; first compound 0.3162 µM
  relative viability: 0.302
[16]; first compound 0.01 µM
  relative viability: 0.986
[16]; first compound 0.03162 µM
  relative viability: 0.92
[16]; first compound 0.3162 µM
  relative viability: 0.979
[17]; first compound 0.01 µM
  relative viability: 0.976
[17]; first compound 0.03162 µM
  relative viability: 0.902
[17]; first compound 0.3162 µM
  relative viability: 0.938
[18]; first compound 0.01 µM
  relative viability: 0.24
[18]; first compound 0.03162 µM
  relative viability: 0.256
[18]; first compound 0.3162 µM
  relative viability: 0.269
[19]; first compound 0.01 µM
  relative viability: 0.955
[19]; first compound 0.03162 µM
  relative viability: 1.25
[19]; first compound 0.3162 µM
  relative viability: 1.22
[20]; first compound 0.01 µM
  relative viability: 0.301
[20]; first compound 0.03162 µM
  relative viability: 0.407
[20]; first compound 0.3162 µM
  relative viability: 0.354
[21]; first compound 0.01 µM
  relative viability: 1.02
[21]; first compound 0.03162 µM
  relative viability: 1.04
[21]; first compound 0.3162 µM
  relative viability: 0.879
[22]; first compound 0.03162 µM
  relative viability: 0.97
[22]; first compound 0.3162 µM
  relative viability: 0.929
[23]; first compound 0.01 µM
  relative viability: 0.151
[23]; first compound 0.03162 µM
  relative viability: 0.199
[23]; first compound 0.3162 µM
  relative viability: 0.195

## Clc1ccc(Nc2nnc(Cc3ccncc3)c3ccccc23)cc1 [Vatalanib] + CC1(C)CCC(c2ccc(Cl)cc2)=C(CN2CCN(c3ccc(C(=O)NS(=O)(=O)c4ccc(N[C@H](CCN5CCOCC5)CSc5ccccc5)c(S(=O)(=O)C(F)(F)F)c4)cc3)CC2)C1 [Navitoclax] (partner 0.5 µM)
[1]; first compound 0.04 µM
  relative viability: 0.928
[1]; first compound 0.1265 µM
  relative viability: 1.09
[1]; first compound 0.4 µM
  relative viability: 1.11
[1]; first compound 1.265 µM
  relative viability: 1.02
[1]; first compound 4 µM
  relative viability: 1.08
[2]; first compound 0.04 µM
  relative viability: 1.09
[2]; first compound 0.1265 µM
  relative viability: 0.816
[2]; first compound 0.4 µM
  relative viability: 1.25
[2]; first compound 1.265 µM
  relative viability: 1.03
[2]; first compound 4 µM
  relative viability: 0.991
[3]; first compound 0.04 µM
  relative viability: 1.17
[3]; first compound 0.1265 µM
  relative viability: 1.09
[3]; first compound 0.4 µM
  relative viability: 1.11
[3]; first compound 1.265 µM
  relative viability: 1.04
[3]; first compound 4 µM
  relative viability: 1.11
[4]; first compound 0.04 µM
  relative viability: 0.415
[4]; first compound 0.1265 µM
  relative viability: 0.456
[4]; first compound 0.4 µM
  relative viability: 0.558
[4]; first compound 1.265 µM
  relative viability: 0.412
[4]; first compound 4 µM
  relative viability: 0.529
[5]; first compound 0.04 µM
  relative viability: 0.274
[5]; first compound 0.1265 µM
  relative viability: 0.367
[5]; first compound 0.4 µM
  relative viability: 0.303
[5]; first compound 1.265 µM
  relative viability: 0.29
[5]; first compound 4 µM
  relative viability: 0.322
[6]; first compound 0.04 µM
  relative viability: 1.1
[6]; first compound 0.1265 µM
  relative viability: 0.959
[6]; first compound 0.4 µM
  relative viability: 0.951
[6]; first compound 1.265 µM
  relative viability: 0.79
[6]; first compound 4 µM
  relative viability: 0.822
[7]; first compound 0.04 µM
  relative viability: 0.763
[7]; first compound 0.1265 µM
  relative viability: 0.719
[7]; first compound 0.4 µM
  relative viability: 1.11
[7]; first compound 1.265 µM
  relative viability: 0.855
[7]; first compound 4 µM
  relative viability: 0.859
[8]; first compound 0.04 µM
  relative viability: 1.11
[8]; first compound 0.1265 µM
  relative viability: 1.09
[8]; first compound 0.4 µM
  relative viability: 1.07
[8]; first compound 1.265 µM
  relative viability: 0.994
[8]; first compound 4 µM
  relative viability: 0.964
[9]; first compound 0.04 µM
  relative viability: 0.584
[9]; first compound 0.1265 µM
  relative viability: 0.674
[9]; first compound 0.4 µM
  relative viability: 0.621
[9]; first compound 1.265 µM
  relative viability: 0.51
[9]; first compound 4 µM
  relative viability: 0.589
[10]; first compound 0.04 µM
  relative viability: 0.921
[10]; first compound 0.1265 µM
  relative viability: 0.719
[10]; first compound 0.4 µM
  relative viability: 0.927
[10]; first compound 1.265 µM
  relative viability: 0.823
[10]; first compound 4 µM
  relative viability: 0.822
[11]; first compound 0.04 µM
  relative viability: 1.17
[11]; first compound 0.1265 µM
  relative viability: 1.2
[11]; first compound 0.4 µM
  relative viability: 1.28
[11]; first compound 1.265 µM
  relative viability: 1.15
[11]; first compound 4 µM
  relative viability: 1.31
[12]; first compound 0.04 µM
  relative viability: 1.06
[12]; first compound 0.1265 µM
  relative viability: 0.972
[12]; first compound 0.4 µM
  relative viability: 1.03
[12]; first compound 1.265 µM
  relative viability: 0.821
[12]; first compound 4 µM
  relative viability: 0.993
[13]; first compound 0.04 µM
  relative viability: 0.703
[13]; first compound 0.1265 µM
  relative viability: 0.558
[13]; first compound 0.4 µM
  relative viability: 0.61
[13]; first compound 1.265 µM
  relative viability: 0.612
[13]; first compound 4 µM
  relative viability: 0.61
[14]; first compound 0.04 µM
  relative viability: 1.01
[14]; first compound 0.1265 µM
  relative viability: 1.02
[14]; first compound 0.4 µM
  relative viability: 1.06
[14]; first compound 1.265 µM
  relative viability: 1.08
[14]; first compound 4 µM
  relative viability: 1.06
[15]; first compound 0.04 µM
  relative viability: 1.08
[15]; first compound 0.1265 µM
  relative viability: 1.04
[15]; first compound 0.4 µM
  relative viability: 1.05
[15]; first compound 1.265 µM
  relative viability: 1.05
[15]; first compound 4 µM
  relative viability: 1.13
[16]; first compound 0.04 µM
  relative viability: 0.452
[16]; first compound 0.1265 µM
  relative viability: 0.435
[16]; first compound 0.4 µM
  relative viability: 0.498
[16]; first compound 1.265 µM
  relative viability: 0.318
[16]; first compound 4 µM
  relative viability: 0.502
[17]; first compound 0.04 µM
  relative viability: 0.714
[17]; first compound 0.1265 µM
  relative viability: 0.76
[17]; first compound 0.4 µM
  relative viability: 0.888
[17]; first compound 4 µM
  relative viability: 0.72
[18]; first compound 0.04 µM
  relative viability: 0.565
[18]; first compound 0.1265 µM
  relative viability: 0.94
[18]; first compound 1.265 µM
  relative viability: 0.934
[18]; first compound 4 µM
  relative viability: 1.16
[19]; first compound 0.04 µM
  relative viability: 0.725
[19]; first compound 0.1265 µM
  relative viability: 0.832
[19]; first compound 0.4 µM
  relative viability: 0.848
[19]; first compound 1.265 µM
  relative viability: 0.739
[19]; first compound 4 µM
  relative viability: 0.757
[20]; first compound 0.04 µM
  relative viability: 0.845
[20]; first compound 0.1265 µM
  relative viability: 0.92
[20]; first compound 0.4 µM
  relative viability: 1.1
[20]; first compound 1.265 µM
  relative viability: 0.755
[20]; first compound 4 µM
  relative viability: 0.83
[21]; first compound 0.04 µM
  relative viability: 0.856
[21]; first compound 0.1265 µM
  relative viability: 0.726
[21]; first compound 1.265 µM
  relative viability: 0.728
[21]; first compound 4 µM
  relative viability: 0.713
[22]; first compound 0.04 µM
  relative viability: 1.17
[22]; first compound 0.1265 µM
  relative viability: 1.07
[22]; first compound 0.4 µM
  relative viability: 1.37
[22]; first compound 1.265 µM
  relative viability: 1.07
[22]; first compound 4 µM
  relative viability: 1.08
[23]; first compound 0.04 µM
  relative viability: 1.03
[23]; first compound 0.1265 µM
  relative viability: 1.02
[23]; first compound 0.4 µM
  relative viability: 1
[23]; first compound 1.265 µM
  relative viability: 1.06
[23]; first compound 4 µM
  relative viability: 1.02
